The NIST ThermoML archive (doi:10.1021/je300945r)
± gives the expanded uncertainty stated by the source.

For `F/C=C/C(F)(F)F` [trans-1,3,3,3-tetrafluoropropene], the mass density (302.78 K, 433.9 kPa, Gas, isochoric method) was 22.222 ± 0.12 kg/m3, the mass density (303.13 K, 802 kPa, Liquid, Vibrating tube method) was 1145.9 ± 1.6 kg/m3 and the mass density (303.13 K, 1676 kPa, Liquid, Vibrating tube method) was 1151.1 ± 1.6 kg/m3. The mass density (303.13 K, 4747 kPa, Liquid, Vibrating tube method) was 1167.3 ± 1.6 kg/m3, the mass density (303.13 K, 7769 kPa, Liquid, Vibrating tube method) was 1181.3 ± 1.6 kg/m3 and the mass density (303.13 K, 8772 kPa, Liquid, Vibrating tube method) was 1185.8 ± 1.6 kg/m3. It also gave a mass density (303.14 K, 2678 kPa, Liquid, Vibrating tube method) of 1156.8 ± 1.6 kg/m3, a mass density (303.14 K, 3716 kPa, Liquid, Vibrating tube method) of 1162.3 ± 1.6 kg/m3 and a mass density (303.14 K, 5757 kPa, Liquid, Vibrating tube method) of 1172.2 ± 1.6 kg/m3. For the same molecule, the mass density (303.14 K, 6764 kPa, Liquid, Vibrating tube method) was 1176.9 ± 1.6 kg/m3, the mass density (303.14 K, 9773 kPa, Liquid, Vibrating tube method) was 1190 ± 1.6 kg/m3 and the mass density (303.14 K, 10775 kPa, Liquid, Vibrating tube method) was 1194.1 ± 1.6 kg/m3. For the same molecule, the mass density (303.14 K, 11778 kPa, Liquid, Vibrating tube method) was 1197.9 ± 1.6 kg/m3, the mass density (303.14 K, 12794 kPa, Liquid, Vibrating tube method) was 1201.7 ± 1.6 kg/m3 and the mass density (303.14 K, 13809 kPa, Liquid, Vibrating tube method) was 1205.3 ± 1.6 kg/m3. It also gave a mass density (303.14 K, 14819 kPa, Liquid, Vibrating tube method) of 1209.1 ± 1.6 kg/m3, a mass density (303.14 K, 15824 kPa, Liquid, Vibrating tube method) of 1212.5 ± 1.6 kg/m3 and a mass density (303.14 K, 16838 kPa, Liquid, Vibrating tube method) of 1216 ± 1.6 kg/m3. It also gave a mass density (303.14 K, 17845 kPa, Liquid, Vibrating tube method) of 1219.4 ± 1.6 kg/m3, a mass density (303.14 K, 18856 kPa, Liquid, Vibrating tube method) of 1222.6 ± 1.7 kg/m3 and a mass density (303.14 K, 19875 kPa, Liquid, Vibrating tube method) of 1225.8 ± 1.7 kg/m3. For the same molecule, the mass density (303.14 K, 20888 kPa, Liquid, Vibrating tube method) was 1228.8 ± 1.7 kg/m3, the mass density (303.14 K, 21899 kPa, Liquid, Vibrating tube method) was 1232 ± 1.7 kg/m3 and the mass density (303.14 K, 22909 kPa, Liquid, Vibrating tube method) was 1234.9 ± 1.7 kg/m3. For the same molecule, the mass density (303.14 K, 23916 kPa, Liquid, Vibrating tube method) was 1238 ± 1.7 kg/m3, the mass density (303.14 K, 24920 kPa, Liquid, Vibrating tube method) was 1240.8 ± 1.7 kg/m3 and the mass density (303.14 K, 25928 kPa, Liquid, Vibrating tube method) was 1243.5 ± 1.7 kg/m3. The mass density (303.14 K, 26942 kPa, Liquid, Vibrating tube method) was 1246.4 ± 1.7 kg/m3, the mass density (303.14 K, 27943 kPa, Liquid, Vibrating tube method) was 1249.1 ± 1.7 kg/m3 and the mass density (303.14 K, 28955 kPa, Liquid, Vibrating tube method) was 1251.6 ± 1.7 kg/m3. It also gave a mass density (303.14 K, 29958 kPa, Liquid, Vibrating tube method) of 1254.5 ± 1.7 kg/m3, a mass density (303.14 K, 30966 kPa, Liquid, Vibrating tube method) of 1256.7 ± 1.7 kg/m3 and a mass density (303.15 K, 31972 kPa, Liquid, Vibrating tube method) of 1259.5 ± 1.7 kg/m3. It also gave a mass density (303.15 K, 32984 kPa, Liquid, Vibrating tube method) of 1262 ± 1.7 kg/m3, a mass density (303.15 K, 33993 kPa, Liquid, Vibrating tube method) of 1264.4 ± 1.7 kg/m3 and a mass density (312.59 K, 574.7 kPa, Gas, isochoric method) of 28.571 ± 0.12 kg/m3. It also gave a mass density (312.6 K, 574.7 kPa, Gas, isochoric method) of 28.571 ± 0.12 kg/m3, a mass density (312.61 K, 397.1 kPa, Gas, isochoric method) of 19.231 ± 0.1 kg/m3 and a mass density (312.61 K, 397.2 kPa, Gas, isochoric method) of 19.231 ± 0.1 kg/m3. For the same molecule, the mass density (312.72 K, 168.6 kPa, Gas, isochoric method) was 7.634 ± 0.095 kg/m3, the mass density (312.76 K, 451.9 kPa, Gas, isochoric method) was 21.739 ± 0.1 kg/m3 and the mass density (312.76 K, 452 kPa, Gas, isochoric method) was 21.739 ± 0.1 kg/m3. The mass density (312.8 K, 74.3 kPa, Gas, isochoric method) was 3.311 ± 0.092 kg/m3, the mass density (312.84 K, 268.5 kPa, Gas, isochoric method) was 12.5 ± 0.1 kg/m3 and the mass density (313.13 K, 630.3 kPa, Gas, isochoric method) was 32.258 ± 0.14 kg/m3. For the same molecule, the mass density (313.13 K, 630.4 kPa, Gas, isochoric method) was 32.258 ± 0.14 kg/m3, the mass density (313.14 K, 775 kPa, Liquid, Vibrating tube method) was 1109.9 ± 1.7 kg/m3 and the mass density (313.14 K, 1656 kPa, Liquid, Vibrating tube method) was 1116.2 ± 1.6 kg/m3. The mass density (313.14 K, 2657 kPa, Liquid, Vibrating tube method) was 1122.9 ± 1.6 kg/m3, the mass density (313.14 K, 3683 kPa, Liquid, Vibrating tube method) was 1129.4 ± 1.6 kg/m3 and the mass density (313.14 K, 5739 kPa, Liquid, Vibrating tube method) was 1141.4 ± 1.6 kg/m3. For the same molecule, the mass density (313.14 K, 6749 kPa, Liquid, Vibrating tube method) was 1146.8 ± 1.6 kg/m3, the mass density (313.14 K, 7763 kPa, Liquid, Vibrating tube method) was 1152.1 ± 1.6 kg/m3 and the mass density (313.14 K, 8784 kPa, Liquid, Vibrating tube method) was 1157.1 ± 1.6 kg/m3. It also gave a mass density (313.14 K, 9798 kPa, Liquid, Vibrating tube method) of 1161.9 ± 1.6 kg/m3, a mass density (313.14 K, 10800 kPa, Liquid, Vibrating tube method) of 1166.5 ± 1.6 kg/m3 and a mass density (313.14 K, 11816 kPa, Liquid, Vibrating tube method) of 1170.9 ± 1.6 kg/m3. The mass density (313.14 K, 12819 kPa, Liquid, Vibrating tube method) was 1175.2 ± 1.6 kg/m3, the mass density (313.14 K, 13831 kPa, Liquid, Vibrating tube method) was 1179.3 ± 1.6 kg/m3 and the mass density (313.14 K, 14845 kPa, Liquid, Vibrating tube method) was 1183.4 ± 1.6 kg/m3. The mass density (313.14 K, 15848 kPa, Liquid, Vibrating tube method) was 1187.2 ± 1.6 kg/m3, the mass density (313.14 K, 16855 kPa, Liquid, Vibrating tube method) was 1191.1 ± 1.6 kg/m3 and the mass density (313.14 K, 18874 kPa, Liquid, Vibrating tube method) was 1198.3 ± 1.6 kg/m3. It also gave a mass density (313.14 K, 19890 kPa, Liquid, Vibrating tube method) of 1201.9 ± 1.6 kg/m3, a mass density (313.14 K, 20909 kPa, Liquid, Vibrating tube method) of 1205.3 ± 1.6 kg/m3 and a mass density (313.14 K, 21923 kPa, Liquid, Vibrating tube method) of 1208.7 ± 1.7 kg/m3. It also gave a mass density (313.14 K, 22937 kPa, Liquid, Vibrating tube method) of 1212 ± 1.7 kg/m3, a mass density (313.14 K, 23947 kPa, Liquid, Vibrating tube method) of 1215.2 ± 1.7 kg/m3 and a mass density (313.14 K, 25962 kPa, Liquid, Vibrating tube method) of 1221.3 ± 1.7 kg/m3. It also gave a mass density (313.14 K, 26971 kPa, Liquid, Vibrating tube method) of 1224.3 ± 1.7 kg/m3, a mass density (313.14 K, 28984 kPa, Liquid, Vibrating tube method) of 1230.1 ± 1.7 kg/m3 and a mass density (313.15 K, 4723 kPa, Liquid, Vibrating tube method) of 1135.7 ± 1.6 kg/m3. The mass density (313.15 K, 17865 kPa, Liquid, Vibrating tube method) was 1194.7 ± 1.6 kg/m3, the mass density (313.15 K, 24948 kPa, Liquid, Vibrating tube method) was 1218.2 ± 1.7 kg/m3 and the mass density (313.15 K, 27973 kPa, Liquid, Vibrating tube method) was 1227.2 ± 1.7 kg/m3. It also gave a mass density (313.15 K, 30002 kPa, Liquid, Vibrating tube method) of 1232.9 ± 1.7 kg/m3, a mass density (313.15 K, 31006 kPa, Liquid, Vibrating tube method) of 1235.7 ± 1.7 kg/m3 and a mass density (313.15 K, 32010 kPa, Liquid, Vibrating tube method) of 1238.4 ± 1.7 kg/m3. For the same molecule, the mass density (313.15 K, 33010 kPa, Liquid, Vibrating tube method) was 1241 ± 1.7 kg/m3, the mass density (313.15 K, 34013 kPa, Liquid, Vibrating tube method) was 1243.6 ± 1.7 kg/m3 and the mass density (323.1 K, 76.8 kPa, Gas, isochoric method) was 3.311 ± 0.089 kg/m3. The mass density (323.1 K, 278.4 kPa, Gas, isochoric method) was 12.346 ± 0.098 kg/m3, the mass density (323.1 K, 470.5 kPa, Gas, isochoric method) was 21.739 ± 0.1 kg/m3 and the mass density (323.11 K, 174.6 kPa, Gas, isochoric method) was 7.634 ± 0.09 kg/m3. It also gave a mass density (323.11 K, 413.3 kPa, Gas, isochoric method) of 19.231 ± 0.099 kg/m3, a mass density (323.11 K, 413.4 kPa, Gas, isochoric method) of 19.231 ± 0.099 kg/m3 and a mass density (323.11 K, 658.4 kPa, Gas, isochoric method) of 32.258 ± 0.12 kg/m3. It also gave a mass density (323.12 K, 836.8 kPa, Gas, isochoric method) of 43.478 ± 0.15 kg/m3, a mass density (323.14 K, 1009 kPa, Liquid, Vibrating tube method) of 1071.8 ± 1.7 kg/m3 and a mass density (323.14 K, 1595 kPa, Liquid, Vibrating tube method) of 1077.1 ± 1.7 kg/m3. It also gave a mass density (323.14 K, 2609 kPa, Liquid, Vibrating tube method) of 1085.6 ± 1.7 kg/m3, a mass density (323.14 K, 3638 kPa, Liquid, Vibrating tube method) of 1093.6 ± 1.6 kg/m3 and a mass density (323.14 K, 4686 kPa, Liquid, Vibrating tube method) of 1101.1 ± 1.6 kg/m3. The mass density (323.14 K, 5705 kPa, Liquid, Vibrating tube method) was 1108 ± 1.6 kg/m3, the mass density (323.14 K, 6730 kPa, Liquid, Vibrating tube method) was 1114.5 ± 1.6 kg/m3 and the mass density (323.14 K, 7748 kPa, Liquid, Vibrating tube method) was 1120.7 ± 1.6 kg/m3.
